For assay [1], the target named is T1, Carbonic anhydrase 4 (Bos taurus, UniProt Q95323).
T1 sequence (Q95323 whole entry): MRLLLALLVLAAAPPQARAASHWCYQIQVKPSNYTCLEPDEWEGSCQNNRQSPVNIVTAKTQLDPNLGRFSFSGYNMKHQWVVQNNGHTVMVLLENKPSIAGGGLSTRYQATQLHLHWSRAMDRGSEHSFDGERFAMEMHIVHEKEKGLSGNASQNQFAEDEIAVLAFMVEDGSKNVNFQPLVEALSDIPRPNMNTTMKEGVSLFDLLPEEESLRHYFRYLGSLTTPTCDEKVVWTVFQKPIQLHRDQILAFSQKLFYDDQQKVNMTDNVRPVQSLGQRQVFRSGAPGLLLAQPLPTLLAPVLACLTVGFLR
Description: Inhibition of bovine carbonic anhydrase IV (CA4) from bovine lung microsomes

The target of assay [2] is Carbonic anhydrase 1 (Homo sapiens, UniProt P00915).
Sequence of Carbonic anhydrase 1 (P00915 whole entry): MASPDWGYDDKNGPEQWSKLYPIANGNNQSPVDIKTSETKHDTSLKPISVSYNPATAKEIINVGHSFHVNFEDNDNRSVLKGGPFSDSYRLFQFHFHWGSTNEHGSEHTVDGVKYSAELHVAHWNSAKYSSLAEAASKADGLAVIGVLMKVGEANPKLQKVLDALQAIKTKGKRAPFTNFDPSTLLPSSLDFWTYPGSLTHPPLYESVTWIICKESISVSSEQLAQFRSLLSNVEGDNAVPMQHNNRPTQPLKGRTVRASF
Description: Inhibition of human recombinant carbonic anhydrase I (CA1)

In the case of `NS(=O)(=O)c1ccc(NNC(=O)C(F)(F)C(F)(F)C(F)(F)C(F)(F)C(F)(F)C(F)(F)C(F)(F)C(F)(F)F)cc1`, the Ki in assay [1] was 840 nM; in assay [2] it was 1850 nM.

For the molecule `NS(=O)(=O)c1ccc(NS(=O)(=O)C(F)(F)F)c(Br)c1`, the values for the Ki in assay [1] and in assay [2] were 47000 nM and 200000 nM, respectively. The matching figures for `NS(=O)(=O)c1ccccc1NC(=O)C(F)(F)C(F)(F)C(F)(F)C(F)(F)C(F)(F)C(F)(F)C(F)(F)C(F)(F)F`: 1500 nM and 1800 nM. In the same order, the values of `NS(=O)(=O)c1nnc(NC(=O)CCNS(=O)(=O)C(F)(F)C(F)(F)C(F)(F)C(F)(F)F)s1` are 11 nM and 300 nM.

For `Cn1nc(S(N)(=O)=O)s/c1=N/S(=O)(=O)c1ccc(NC(=O)C(F)(F)C(F)(F)C(F)(F)C(F)(F)C(F)(F)C(F)(F)C(F)(F)C(F)(F)F)cc1`, the Ki worked out at 12 nM in assay [1] and 900 nM in assay [2]. On to `NS(=O)(=O)c1ccc(CNS(=O)(=O)C(F)(F)F)cc1`, for which the Ki in assay [1] was found to be 24500 nM; in assay [2] it was 138000 nM. Take `NS(=O)(=O)c1ccc(NC(=O)c2c(F)c(F)c(F)c(F)c2F)c(Br)c1`: the Ki came to 865 nM in assay [1] and 1870 nM in assay [2]. As to `NS(=O)(=O)c1ccc(Nc2ccnc(NS(=O)(=O)C(F)(F)F)n2)cc1`, the Ki turned out to be 39 nM in assay [1] and 8000 nM in assay [2]. With `NS(=O)(=O)c1nnc(NS(=O)(=O)c2ccc(NS(=O)(=O)C(F)(F)F)cc2)s1`, the inhibitory constant (Ki) in assay [1] came to 25 nM; in assay [2] it was 1000 nM.

As for `NS(=O)(=O)c1ccc(NS(=O)(=O)C(F)(F)C(F)(F)C(F)(F)C(F)(F)C(F)(F)C(F)(F)C(F)(F)C(F)(F)F)c(Cl)c1`, the Ki in assay [1] came to 10300 nM; in assay [2], 2480 nM.

For the molecule `NS(=O)(=O)c1nc2ccc(OCCOC(=O)C(F)(F)C(F)(F)C(F)(F)C(F)(F)C(F)(F)C(F)(F)C(F)(F)C(F)(F)F)cc2s1`, the Ki is 7 nM in assay [1] and 24 nM in assay [2]. The matching figures for `NS(=O)(=O)c1ccc(NS(=O)(=O)c2ccc(NC(=O)c3c(F)c(F)c(F)c(F)c3F)cc2)cc1`: 39 nM and 6600 nM. Turning to `NS(=O)(=O)c1ccc(COC(=O)c2c(F)c(F)c(F)c(F)c2F)cc1`, the results for the Ki in assay [1] and in assay [2] were 410 nM and 1200 nM, respectively. As for `NS(=O)(=O)c1ccc(CNS(=O)(=O)C(F)(F)C(F)(F)C(F)(F)C(F)(F)F)cc1`, the Ki in assay [1] came to 255 nM; in assay [2], 13000 nM. Consider `NS(=O)(=O)c1nnc(NS(=O)(=O)c2ccc(NC(=O)c3c(F)c(F)c(F)c(F)c3F)cc2)s1`, for which the figures for the Ki in assay [1] and in assay [2] were 32 nM and 1500 nM, respectively. `NS(=O)(=O)c1ccc(NC(=O)C(F)(F)C(F)(F)C(F)(F)C(F)(F)C(F)(F)C(F)(F)C(F)(F)C(F)(F)F)c(F)c1`: the Ki is 550 nM in assay [1] and 1400 nM in assay [2]. `NS(=O)(=O)c1cccc(NS(=O)(=O)c2ccc(NC(=O)C(F)(F)C(F)(F)C(F)(F)C(F)(F)C(F)(F)C(F)(F)C(F)(F)C(F)(F)F)cc2)c1`: the Ki worked out at 30 nM in assay [1] and 3000 nM in assay [2]. Consider `NS(=O)(=O)c1ccc(NS(=O)(=O)c2c(F)c(F)c(F)c(F)c2F)c(F)c1`, for which the values for the Ki in assay [1] and in assay [2] were 140 nM and 710 nM, respectively. As for `NS(=O)(=O)c1nc2ccc(OCCOS(=O)(=O)C(F)(F)C(F)(F)C(F)(F)C(F)(F)F)cc2s1`, the inhibition constant (Ki) in assay [1] was determined as 6 nM; in assay [2], 19 nM.

As for `NS(=O)(=O)c1cc(S(N)(=O)=O)c(NC(=O)c2c(F)c(F)c(F)c(F)c2F)c(Cl)c1Cl`, the inhibition constant Ki worked out at 420 nM in assay [1] and 1900 nM in assay [2]. Regarding `NS(=O)(=O)c1ccc(CCOS(=O)(=O)c2c(F)c(F)c(F)c(F)c2F)cc1`, the Ki in assay [1] was found to be 103 nM; in assay [2] it was 300 nM. As to `NS(=O)(=O)c1nc2ccc(NS(=O)(=O)C(F)(F)C(F)(F)C(F)(F)C(F)(F)C(F)(F)C(F)(F)C(F)(F)C(F)(F)F)cc2s1`, the values for the Ki in assay [1] and in assay [2] were 7 nM and 49 nM, respectively. With `NS(=O)(=O)c1ccc(NC(=O)C(F)(F)C(F)(F)C(F)(F)C(F)(F)C(F)(F)C(F)(F)C(F)(F)C(F)(F)F)c(Br)c1`, the Ki in assay [1] is 620 nM; in assay [2], 2500 nM. As for `NS(=O)(=O)c1nnc(NS(=O)(=O)C(F)(F)F)s1`, the results for the Ki in assay [1] and in assay [2] were 600 nM and 59800 nM, respectively. As for `Cn1nc(S(N)(=O)=O)s/c1=N/S(=O)(=O)c1ccc(NC(=O)c2c(F)c(F)c(F)c(F)c2F)cc1`, in assay [2], the Ki is 1600 nM. This lies in the single-digit micromolar range. For the molecule `NS(=O)(=O)c1cc(S(N)(=O)=O)c(NC(=O)c2c(F)c(F)c(F)c(F)c2F)cc1Cl`, the Ki was 54 nM in assay [1] and 750 nM in assay [2]. In the case of `NS(=O)(=O)c1nc2ccc(NS(=O)(=O)C(F)(F)F)cc2s1`, the values for the Ki in assay [1] and in assay [2] were 8 nM and 70 nM, respectively.

Consider `NS(=O)(=O)c1ccc(NS(=O)(=O)c2c(F)c(F)c(F)c(F)c2F)c(Br)c1`, for which the Ki in assay [1] was determined as 550 nM; in assay [2] it was 1500 nM. On to `Cn1nc(S(N)(=O)=O)s/c1=N/C(=O)C(F)(F)C(F)(F)C(F)(F)C(F)(F)C(F)(F)C(F)(F)C(F)(F)C(F)(F)F`, for which the Ki in assay [1] was determined as 18 nM; in assay [2] it was 330 nM. The matching figures for `NS(=O)(=O)c1ccc(CCOC(=O)C(F)(F)C(F)(F)C(F)(F)C(F)(F)C(F)(F)C(F)(F)C(F)(F)C(F)(F)F)cc1`: 12000 nM and 20000 nM. As to `NS(=O)(=O)c1ccc(Nc2ccnc(NC(=O)C(F)(F)C(F)(F)C(F)(F)C(F)(F)C(F)(F)C(F)(F)C(F)(F)C(F)(F)F)n2)cc1`, the Ki came out at 36 nM in assay [1] and 4400 nM in assay [2].

In the case of `NS(=O)(=O)c1nnc(NC(=O)CCNS(=O)(=O)C(F)(F)C(F)(F)C(F)(F)C(F)(F)C(F)(F)C(F)(F)C(F)(F)C(F)(F)F)s1`, the Ki in assay [1] was determined as 9 nM; in assay [2], 300 nM. The matching figures for `Cn1nc(S(N)(=O)=O)sc1=NS(=O)(=O)C(F)(F)C(F)(F)C(F)(F)C(F)(F)C(F)(F)C(F)(F)C(F)(F)C(F)(F)F`: 14 nM and 380 nM. The matching figures for `NS(=O)(=O)c1nc2ccc(OS(=O)(=O)c3c(F)c(F)c(F)c(F)c3F)cc2s1`: 6 nM and 25 nM. For the molecule `NS(=O)(=O)c1ccc(CCNC(=O)c2c(F)c(F)c(F)c(F)c2F)cc1`, the Ki in assay [1] is 310 nM; in assay [2], 900 nM. For the molecule `NS(=O)(=O)c1ccc(NS(=O)(=O)c2ccc(NS(=O)(=O)C(F)(F)C(F)(F)C(F)(F)C(F)(F)F)cc2)cc1`, the inhibitory constant (Ki) in assay [1] was determined as 31 nM; in assay [2], 3600 nM. The matching figures for `NS(=O)(=O)c1nc2ccc(OS(=O)(=O)C(F)(F)C(F)(F)C(F)(F)C(F)(F)C(F)(F)C(F)(F)C(F)(F)C(F)(F)F)cc2s1`: 8 nM and 28 nM. The matching figures for `NS(=O)(=O)c1cc(S(N)(=O)=O)c(NS(=O)(=O)C(F)(F)C(F)(F)C(F)(F)C(F)(F)C(F)(F)C(F)(F)C(F)(F)C(F)(F)F)c(Cl)c1Cl`: 765 nM and 8000 nM.

As for `NS(=O)(=O)c1ccc(Nc2ccnc(NS(=O)(=O)C(F)(F)C(F)(F)C(F)(F)C(F)(F)F)n2)cc1`, the inhibition constant (Ki) in assay [1] was found to be 30 nM; in assay [2], 6000 nM.

Take `NS(=O)(=O)c1ccc(NS(=O)(=O)C(F)(F)F)c(Cl)c1`: the Ki in assay [1] amounted to 42000 nM; in assay [2] it was 180000 nM. In the same order, the values of `NS(=O)(=O)c1ccc(NS(=O)(=O)c2ccc(NS(=O)(=O)C(F)(F)C(F)(F)C(F)(F)C(F)(F)C(F)(F)C(F)(F)C(F)(F)C(F)(F)F)cc2)cc1` are 29 nM and 3000 nM. `NS(=O)(=O)c1ccc(NC(=O)C(F)(F)C(F)(F)C(F)(F)C(F)(F)C(F)(F)C(F)(F)C(F)(F)C(F)(F)F)c(I)c1`: the Ki in assay [1] worked out at 680 nM; in assay [2], 3000 nM. Take `NS(=O)(=O)c1ccc(CCOS(=O)(=O)C(F)(F)C(F)(F)C(F)(F)C(F)(F)C(F)(F)C(F)(F)C(F)(F)C(F)(F)F)cc1`: the Ki stood at 12300 nM in assay [1] and 22000 nM in assay [2]. In the same order, the values of `NS(=O)(=O)c1ccc(NS(=O)(=O)C(F)(F)C(F)(F)C(F)(F)C(F)(F)F)c(F)c1` are 200 nM and 1070 nM. With `NS(=O)(=O)c1ccc(COS(=O)(=O)C(F)(F)C(F)(F)C(F)(F)C(F)(F)C(F)(F)C(F)(F)C(F)(F)C(F)(F)F)cc1`, the Ki in assay [1] was 10900 nM; in assay [2] it was 15000 nM. As to `NS(=O)(=O)c1cccc(NS(=O)(=O)C(F)(F)C(F)(F)C(F)(F)C(F)(F)F)c1`, the Ki worked out at 590 nM in assay [1] and 18400 nM in assay [2].

Turning to `NS(=O)(=O)c1ccc(CCNS(=O)(=O)C(F)(F)C(F)(F)C(F)(F)C(F)(F)F)cc1`, the Ki in assay [1] came to 240 nM; in assay [2] it was 12500 nM. Consider `NS(=O)(=O)c1ccc(NS(=O)(=O)c2ccc(NS(=O)(=O)C(F)(F)F)cc2)cc1`, for which the values for the Ki in assay [1] and in assay [2] were 40 nM and 4000 nM, respectively.

As for `NS(=O)(=O)c1ccc(NS(=O)(=O)C(F)(F)C(F)(F)C(F)(F)C(F)(F)F)c(Br)c1`, the Ki in assay [1] was 900 nM; in assay [2], 20300 nM. Turning to `NS(=O)(=O)c1cc(S(N)(=O)=O)c(NC(=O)C(F)(F)C(F)(F)C(F)(F)C(F)(F)C(F)(F)C(F)(F)C(F)(F)C(F)(F)F)c(Cl)c1Cl`, the inhibition constant (Ki) in assay [1] came out at 830 nM; in assay [2] it was 7000 nM.

For `NS(=O)(=O)c1cc(S(N)(=O)=O)c(NS(=O)(=O)C(F)(F)C(F)(F)C(F)(F)C(F)(F)C(F)(F)C(F)(F)C(F)(F)C(F)(F)F)cc1Cl`, the inhibitory constant (Ki) in assay [1] came to 155 nM; in assay [2] it was 890 nM.

`NS(=O)(=O)c1ccc(NS(=O)(=O)c2ccc(NC(=O)C(F)(F)C(F)(F)C(F)(F)C(F)(F)C(F)(F)C(F)(F)C(F)(F)C(F)(F)F)cc2)cc1`: the Ki worked out at 25 nM in assay [1] and 2400 nM in assay [2]. Turning to `NS(=O)(=O)c1cccc(NS(=O)(=O)C(F)(F)C(F)(F)C(F)(F)C(F)(F)C(F)(F)C(F)(F)C(F)(F)C(F)(F)F)c1`, the Ki in assay [1] was 870 nM; in assay [2], 1400 nM.

The values above are taken from ChEMBL document CHEMBL1133531, “Carbonic anhydrase inhibitors: perfluoroalkyl/aryl-substituted derivatives of aromatic/heterocyclic sulfonamides as topical intraocular pressure-lowering agents with prolonged duration of action” (J Med Chem, 2000).
